Structures are written as SMILES.

The first assay deals with HCV 1b-377-neo replicon cells. In words: HCV replicon assay, HCV 1b-377-neo replicon cells (1b FRET). The conditions noted are these: HCV 1b-377-neo replicon cells; HCV 1b genotype; read-out: EC50 range against HCV 1b (Table 2, Range). Type of assay: cell-based, Hepatitis C virus genotype 1b. The procedure, abridged:
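FRET-based replicon assay in HCV 1b-377-neo cells, including a comparison line carrying the NS5A Y2065H mutation that confers resistance to a reference compound.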
Take `COC(=O)N[C@@H](C(=O)N1CCC[C@H]1c1ncc(-c2ccc(-c3ccc(-c4cnc([C@@H]5CCCN5C(=O)Cc5ccccc5CN5CCCCC5)[nH]4)cc3)cc2)[nH]1)c1ccccc1` [Example 84-85, methyl ((1R)-2-oxo-1-phenyl-2-((2S)-2-(5-(4′-(2-((2S)-1-((2-(1-piperidinylmethyl)phenyl)acetyl)-2-pyrrolidinyl)-1H-imidazol-5-yl)-4-biphenylyl)-1H-imidazol-2-yl)-1-pyrrolidinyl)ethyl)carbamate]: the EC50 (as a rule, the concentration that produces a half-maximal response) is 0.001 to 0.999 nM.

`C[C@@](O)(C(=O)N1CCC[C@H]1c1ncc(-c2ccc(-c3ccc(-c4cnc([C@@H]5CCCN5C(=O)[C@@](C)(O)c5ccccc5)[nH]4)cc3)cc2)[nH]1)c1ccccc1` [Example 3, (2S,2′S)-1,1′-(4,4′-biphenyldiylbis(1H-imidazole-5,2-diyl(2)-2,1-pyrrolidinediyl))bis(1-oxo-2-phenyl-2-propanol)]: the 50% effective concentration (EC50) lay in the range of 0.001 to 0.999 nM.

Staying with this assay, now noted: Hepatitis C virus, HCV 1b-377-neo replicon cells; HCV 1b genotype; read-out: EC50 range against HCV 1b (Table 2, Range).
For the molecule `CN1CCN(C(=O)N[C@@H](C(=O)N2CCC[C@H]2c2ncc(-c3ccc(-c4ccc(-c5cnc([C@@H]6CCCN6C(=O)[C@@H]6CCCO6)[nH]5)cc4)cc3)[nH]2)c2ccccc2)CC1` [Example 117, 4-methyl-N-((1R)-2-oxo-1-phenyl-2-((2S)-2-(5-(4′-(2-((2S)-1-((2S)-tetrahydro-2-furanylcarbonyl)-2-pyrrolidinyl)-1H-imidazol-5-yl)-4-biphenylyl)-1H-imidazol-2-yl)-1-pyrrolidinyl)ethyl)-1-piperazinecarboxamide], the 50% effective concentration (EC50) lay within 0.001 to 0.999 nM.

As for `COC(=O)NCC(=O)N1CCC[C@H]1c1ncc(-c2ccc(-c3ccc(-c4cnc([C@@H]5CCCN5C(=O)[C@@H](NC(=O)OC)C(C)C)[nH]4)cc3)cc2)[nH]1` [Example M73, methyl (2-((2S)-2-(5-(4′-(2-((2S)-1-((2S)-2-((methoxycarbonyl)amino)-3-methylbutanoyl)-2-pyrrolidinyl)-1H-imidazol-5-yl)-4-biphenylyl)-1H-imidazol-2-yl)-1-pyrrolidinyl)-2-oxoethyl)carbamate], the EC50 was in the range of 100 to 999 nM.

For `CN(C)[C@@H](C(=O)N1CCC[C@H]1c1ncc(-c2ccc(-c3ccc(-c4cnc([C@@H]5CCCN5C(=O)c5cccc(C(=O)c6ccccc6)c5)[nH]4)cc3)cc2)[nH]1)c1ccccc1` [Example 94-32, (3-(((2S)-2-(5-(4′-(2-((2S)-1-((2R)-2-(dimethylamino)-2-phenylacetyl)-2-pyrrolidinyl)-1H-imidazol-5-yl)-4-biphenylyl)-1H-imidazol-2-yl)-1-pyrrolidinyl)carbonyl)phenyl)(phenyl)methanone], the EC50 fell in the range of 1 to 99 nM.

As for `COC(=O)N[C@H](C(=O)N1CCC[C@H]1c1ncc(-c2ccc(-c3ccc(-c4[nH]c([C@@H]5CCCN5C(=O)[C@@H](NC(=O)OC)[C@@H](C)OC)nc4C(F)(F)F)cc3)cc2)[nH]1)[C@@H](C)OC` [Example J42, methyl ((1S,2R)-2-methoxy-1-(((2S)-2-(5-(4′-(2-((2S)-1-(N-(methoxycarbonyl)-O-methyl-L-threonyl)-2-pyrrolidinyl)-4-(trifluoromethyl)-1H-imidazol-5-yl)-4-biphenylyl)-1H-imidazol-2-yl)-1-pyrrolidinyl)carbonyl)propyl)carbamate], the EC50 is 0.001 to 0.999 nM.

Take `COC(=O)N[C@@H](C)C(=O)N1[C@@H](C)CC[C@H]1c1nc(-c2ccc(-c3ccc(-c4c[nH]c([C@@H]5CC[C@H](C)N5C(=O)[C@H](C)NC(=O)OC)n4)cc3)cc2)c[nH]1` [Example M157, methyl ((1S)-2-((2S,5S)-2-(4-(4′-(2-((2S,5S)-1-(N-(methoxycarbonyl)-L-alanyl)-5-methyl-2-pyrrolidinyl)-1H-imidazol-4-yl)-4-biphenylyl)-1H-imidazol-2-yl)-5-methyl-1-pyrrolidinyl)-1-methyl-2-oxoethyl)carbamate]: the EC50 was 0.001 to 0.999 nM.

For `CCN(CC)[C@@H](C(=O)N1CCC[C@H]1c1ncc(-c2ccc(-c3ccc(-c4cnc([C@@H]5CCCN5C(=O)[C@@H](NC(=O)OC)C(C)(C)C)[nH]4)cc3)cc2)[nH]1)c1ccccc1` [Example M59, methyl ((1S)-1-(((2S)-2-(5-(4′-(2-((2S)-1-((2R)-2-(diethylamino)-2-phenylacetyl)-2-pyrrolidinyl)-1H-imidazol-5-yl)-4-biphenylyl)-1H-imidazol-2-yl)-1-pyrrolidinyl)carbonyl)-2,2-dimethylpropyl)carbamate], the 50% effective concentration (EC50) is 1 to 99 nM.

As for `CN(C)[C@@H](C(=O)N1CCC[C@H]1c1ncc(-c2ccc(-c3ccc(-c4cnc([C@@H]5CCCN5C(=O)c5snnc5-c5ccccc5)[nH]4)cc3)cc2)[nH]1)c1ccccc1` [Example 94-10, (1R)-N,N-dimethyl-2-oxo-1-phenyl-2-((2S)-2-(5-(4′-(2-((2S)-1-((4-phenyl-1,2,3-thiadiazol-5-yl)carbonyl)-2-pyrrolidinyl)-1H-imidazol-5-yl)-4-biphenylyl)-1H-imidazol-2-yl)-1-pyrrolidinyl)ethanamine], the EC50 lay in the range of 0.001 to 0.999 nM.

As to `COC(=O)N[C@H](C(=O)N1CCC[C@H]1c1nc(-c2ccc(-c3ccc(-c4c[nH]c([C@@H]5CCCN5C(=O)[C@H](C)NC5CCOCC5)n4)cc3)cc2)c[nH]1)C(C)C` [Example F48, methyl ((1S)-2-methyl-1-(((2S)-2-(4-(4′-(2-((2S)-1-(N-(tetrahydro-2H-pyran-4-yl)-L-alanyl)-2-pyrrolidinyl)-1H-imidazol-4-yl)-4-biphenylyl)-1H-imidazol-2-yl)-1-pyrrolidinyl)carbonyl)propyl)carbamate], the EC50 lay within 0.001 to 0.999 nM.

With `COC(=O)N[C@@H](CC(=O)O)C(=O)N1CCC[C@H]1c1ncc(-c2ccc(-c3ccc(-c4cnc([C@@H]5CCCN5C(=O)[C@@H](NC(=O)OC)C(C)C)[nH]4)cc3)cc2)[nH]1` [Example M111, (3S)-3-((methoxycarbonyl)amino)-4-((2S)-2-(5-(4′-(2-((2S)-1-(N-(methoxycarbonyl)-L-valyl)-2-pyrrolidinyl)-1H-imidazol-5-yl)-4-biphenylyl)-1H-imidazol-2-yl)-1-pyrrolidinyl)-4-oxobutanoic acid], the EC50 was 1000 to 10000 nM.

For the molecule `COC(=O)N[C@@H](C(=O)N1CCC[C@H]1c1ncc(-c2ccc(-c3ccc(-c4cnc([C@@H]5CCCN5C(=O)[C@@H](C)NC(C)=O)[nH]4)cc3)cc2)[nH]1)c1ccccc1` [Example 53, methyl ((1R)-2-((2S)-2-(5-(4′-(2-((2S)-1-(N-acetyl-D-alanyl)-2-pyrrolidinyl)-1H-imidazol-5-yl)-4-biphenylyl)-1H-imidazol-2-yl)-1-pyrrolidinyl)-2-oxo-1-phenylethyl)carbamate], the EC50 was 0.001 to 0.999 nM.

For the molecule `COC(=O)N[C@@H](C(=O)N[C@@H](C)c1ncc(-c2ccc(-c3ccc(-c4cnc([C@@H]5CCCN5C(=O)[C@H](NC(=O)OC)c5ccccc5)[nH]4)cn3)cc2)[nH]1)c1ccccc1` [Example 152j-12, methyl ((1R)-2-((2S)-2-(5-(6-(4-(2-((1S)-1-(((2R)-2-((methoxycarbonyl)amino)-2-phenylacetyl)amino)ethyl)-1H-imidazol-5-yl)phenyl)-3-pyridinyl)-1H-imidazol-2-yl)-1-pyrrolidinyl)-2-oxo-1-phenylethyl)carbamate], the EC50 fell in the range of 0.001 to 0.999 nM.

Consider `COC(=O)NC(C)(C)C(=O)N1[C@@H](C)CC[C@H]1c1nc(-c2ccc(-c3ccc(-c4c[nH]c([C@@H]5CC[C@H](C)N5C(=O)C(C)(C)NC(=O)OC)n4)cc3)cc2)c[nH]1` [Example M156, methyl (2-((2S,5S)-2-(4-(4′-(2-((2S,5S)-1-(2-((methoxycarbonyl)amino)-2-methylpropanoyl)-5-methyl-2-pyrrolidinyl)-1H-imidazol-4-yl)-4-biphenylyl)-1H-imidazol-2-yl)-5-methyl-1-pyrrolidinyl)-1,1-dimethyl-2-oxoethyl)carbamate], for which the EC50 lay in the range of 1 to 99 nM.

For the molecule `COC(=O)N[C@@H](C)C(=O)N1CCC[C@H]1c1nc(C(=O)OCc2ccccc2)c(-c2ccc(-c3ccc(-c4cnc([C@@H]5CCCN5C(=O)[C@@H](C)NC(=O)OC)[nH]4)cc3)cc2)[nH]1` [Example J24, benzyl 2-((2S)-l-(N-(methoxycarbonyl)-L-alanyl)-2-pyrrolidinyl)-5-(4-(2-((2S)-l-(N-(methoxycarbonyl)-L-alanyl)-2-pyrrolidinyl)-1H-imidazol-5-yl)-4-biphenylyl)-1H-imidazole-4-carboxylate], the concentration giving a half-maximal response (EC50) is 0.001 to 0.999 nM.

With `COC(=O)N[C@H](C(=O)N1CCC[C@H]1c1ncc(-c2ccc(-c3ccc(-c4cnc([C@@H]5CCCN5C(=O)[C@H](NC(=O)OC)c5ccccc5)[nH]4)cc3)cc2)[nH]1)C(C)C` [Example M80, methyl ((1S)-1-(((2S)-2-(5-(4′-(2-((2S)-1-((2R)-2-((methoxycarbonyl)amino)-2-phenylacetyl)-2-pyrrolidinyl)-1H-imidazol-5-yl)-4-biphenylyl)-1H-imidazol-2-yl)-1-pyrrolidinyl)carbonyl)-2-methylpropyl)carbamate], the concentration giving a half-maximal response (EC50) was in the range of 1 to 99 nM.

Turning to `COC(=O)N[C@H](C(=O)N1CCC[C@H]1c1ncc(-c2cnc(-c3ccc(-c4[nH]c([C@@H]5CCCN5C(=O)[C@@H](NC(=O)OC)C(C)C)nc4C(F)(F)F)cc3)nc2)[nH]1)C(C)C` [Example J48, methyl ((1S)-1-(((2S)-2-(5-(2-(4-(2-((2S)-1-((2S)-2-((methoxycarbonyl)amino)-3-methylbutanoyl)-2-pyrrolidinyl)-4-(trifluoromethyl)-1H-imidazol-5-yl)phenyl)-5-pyrimidinyl)-1H-imidazol-2-yl)-1-pyrrolidinyl)carbonyl)-2-methylpropyl)carbamate], the half-maximal effective concentration (EC50) was in the range of 0.001 to 0.999 nM.

As to `CN(C)[C@@H](C(=O)N1CCC[C@H]1c1ncc(-c2ccc(-c3ccc(-c4cnc([C@@H]5CCCN5C(=O)[C@@H](c5ccccc5F)N(C)C)[nH]4)cc3)cc2)[nH]1)c1ccccc1` [Example 107-31, (1R)-2-((2S)-2-(5-(4′-(2-((2S)-1-((2R)-2-(dimethylamino)-2-(2-fluorophenyl)acetyl)-2-pyrrolidinyl)-1H-imidazol-5-yl)-4-biphenylyl)-1H-imidazol-2-yl)-1-pyrrolidinyl)-N,N-dimethyl-2-oxo-1-phenylethanamine], the EC50 fell in the range of 0.001 to 0.999 nM.

The values above are taken from US8574563B2 (Bristol-Myers Squibb Company, priority 2006, dated 2013).
